Results reported in patent US20090258381A1, “Methods for Determining the Cleavability of Substrates” (priority 2005, published 2009).
One block for each substance: values may come before it.

Experiments:
[1] = Half-lives of peptides in murine intestinal fluid (intestinal enzyme solution); settings: relates to undiluted murine intestinal fluid, 90 min incubation in dilutions, 37° C.
Description: Anesthetized female Balb/c mice were sacrificed by cervical dislocation and their abdominal wall was opened. The small bowel was clamped with a hemostat behind the stomach outlet (proximal end) and severed from the stomach. The small bowel was exposed and clamped with a second hemostat near the posterior (distal) end. The bowel was severed a second time behind this point.
The subsequent preparation steps to obtain the digestive secretions were performed on an ice-cooled surface. The small bowel closed on both sides was agitated in ice-cold simulated intestinal fluid (SIF; 8 mM phosphate, pH 7.2, with 4.6 mM K^+, 111.3 mM Na^+, 101.5 mM Cl) according to Lockwood and Randall (1949), which was intended to imitate as accurately as possible the physiological conditions of the small bowel in terms of ion concentrations, in order to remove external contaminants and keep it moist. To obtain the digestive secretions present in the small bowel, the distal end of the bowel was suspended in a reaction vessel and the hemostat attached on this side was removed. A lateral cut was then made at the proximal end of the bowel so that a syringe provided with a button cannula could be introduced into the bowel which was held without tension. The bowel contents were washed out in three steps. The washing solutions were successively injected slowly into the bowel and collected at the lower end of the bowel separately in three reaction vessels. Firstly, the bowel was rinsed with a volume of 6 ml of perfluorohexane, an inert liquid which is immiscible with water, and the perfluorohexane was driven out with 4 ml of air. Then a mixture of 2.25 ml of perfluorohexane and 0.25 ml of SIF which contained the nonphysiological ions Li^+ and Cs^+, was used for washing in order to be able subsequently to determine the dilution by spectroscopic methods. […] In a third washing step, 5 ml of SIF without tracer were injected. Solid constituents of the bowel contents and the perfluorohexane were separated by centrifugation from the aqueous phase, in which the digestive enzymes were present. An inductively coupled plasma mass spectrometry (ICP-MS) was used to determine the concentrations of Li^+ and Cs^+ in the intestinal enzyme solution, and the dilution factor was calculated taking the volume of the washing buffer into account. The dilution of the third lavage was ascertained via endogenous markers of intestinal secretion (e.g. enzymic activities, immunoglobulins), in comparison with the first two intestinal enzyme solutions. The enzyme solutions were stored after freezing with liquid nitrogen at −70° C.
On a polypropylene microtiter plate having the same format as the coated polystyrene microtiter plate (see example 4), 7.5 μl of peptide solution were introduced into the first well of a row, and 5 μl of the peptide solution were introduced into each of the next 10 wells. The last well remained empty and was intended to serve as background correction. Then, simulated intestinal fluid (SIF) with the addition of 0.005% Tween 20 and 1 mM CaCl (SIFT-CaCl) was put in all the wells. The well with 7.5 μl of peptide solution received 60 μl of SIFT-CaCl, and the wells with 5 μl of peptide solution each received 45 μl of SIFT-CaCl. The empty well for the background correction received 50 μl of SIFT-CaCl. The enzymatic reaction was then started by adding 7.5 μl of a dilution of an intestinal enzyme solution (obtained as in example 2) to the well with 7.5 μl of peptide solution and 60 μl of SIFT-CaCl. 25 μl of this mixture were immediately pipetted into the next well and mixed, and this step was repeated to result in a serial 1:3 dilution of the intestinal enzyme solution over a total of 10 wells. No enzyme solution was put into the last peptide-containing well. Each well thus contained a volume of 50 μl after the serial dilution.

chymotrypsin = assay: Inhibition of enzymatic conversion of GVPFGP by chymotrypsin; type: biochemical; settings: degradation of GVPFGP by chymotrypsin; geometric mean and standard deviation of a quadruplicate measurement; read-out: inhibition constant
Description: (§1) Inhibition constants were measured by carrying out two parallel enzyme dilutions in each case. One enzyme dilution was carried out in the presence, and the other enzyme dilution in the absence, of the protease inhibitor aprotinin. […] The peptide chosen for the trypsin enzyme had the amino acid sequence GPARLA (number 42 from example 1) and the peptide chosen for the chymotrypsin enzyme had the sequence GVPFGP (number 43 from example 1). […] Then, to carry out the proteolytic cleavage in the presence of an inhibitor, 7.5 μl of an aprotinin solution (1 μg/ml for trypsin and 1 mg/ml for chymotrypsin) were put into the first well, and 5 μl of the aprotinin solution (1 μg/ml for trypsin and 1 mg/ml for chymotrypsin) were put into each of the next 10 wells. […] No enzyme solution was put in the last peptide-containing well.
(§2) The inhibition constant of aprotinin can be calculated by comparing the catalytic efficiency (kcat/KM) in the presence and in the absence of aprotinin. kcat/KM values are calculated according to equation (6) and the relationship obtained (equation (17)):
(§3) (kcat/KM)0/(kcat/KM)=1+[I]total/Ki

trypsin [2] = assay: Inhibition of enzymatic conversion of GPARLA by trypsin; type: biochemical; settings: degradation of substrate GPARLA by trypsin; geometric mean and standard deviation of a quadruplicate measurement; read-out: inhibition constant
Description: as §1, §2, §3

trypsin [3] = settings: cleaved with trypsin; FRET-based methods (Grahn et al., 1998); cited from earlier work

Substance: PGFGDSIEAQCGTSVN
t1/2 ([1]; 16-mer peptides): 5.0348 s

Substance: GSAEAGVDAA
t1/2 ([1]; 10-mer peptides): 3.1271 s

Ki (chymotrypsin): 480 nM
Ki (trypsin [2]): 1 nM
Substance: aprotinin

Substance: KLPGFGDSIEAQCGTS
t1/2 ([1]; 16-mer peptides): 6.4211 s

Substance: VVGSAEAGVD
t1/2 ([1]; 10-mer peptides): 4.0618 s

Substance: GPARLAIG [GPARLAIG variant of the trypsin substrate, measured with FRET-based methods (Grahn et al., 1998)]
catalytic efficiency (trypsin [3]): 1.2e+06 M⁻¹ s⁻¹

Substance: FDKLPGFGDSIEAQCG
t1/2 ([1]; 16-mer peptides): 5.6930 s

Substance: FGDSIEAQCGTSVNVH
t1/2 ([1]; 16-mer peptides): 1.3951 s
